Values after ≈ are worked out from the molar mass of the structure shown.
Tested on: Pseudomonas aeruginosa
Test: Antibacterial activity against Pseudomonas aeruginosa ATCC 27853 assessed as reduction in bacterial cell growth incubated for 24 hrs by two fold serial dilution
Format: functional
Details: ATCC 27853, 24 h

`CS(=N)(=O)c1ccccc1` (configuration not stated) and `CS(=O)(=NC(F)(F)F)c1ccccc1` (configuration not stated) cannot be ordered by MIC: over 512 µg/mL for the first, over 512 µg/mL for the second.

`Cc1ccc(S(=O)(=NSC(F)(F)F)N2CCCC2)cc1` (configuration not stated) and `O=[N+]([O-])c1ccc(S(=O)(=NSC(F)(F)F)N2CCCC2)cc1` (configuration not stated) cannot be ordered by MIC: over 512 µg/mL for the first, over 512 µg/mL for the second.

Compared with `O=S(=NSC(F)(F)F)(c1ccccc1)N1CCCC1` (configuration not stated), `O=S(=NSC(F)(F)F)(c1ccccc1)N1CCOCC1` (configuration not stated) is 2-fold lower in MIC: 512 µg/mL (≈ 1650 µM) for the first, 256 µg/mL (≈ 784 µM) for the second.

Going from `CCN(CC)S(=O)(=NSC(F)(F)F)c1ccc([N+](=O)[O-])cc1` (configuration not stated) to `O=[N+]([O-])c1ccc(S(=O)(=NSC(F)(F)F)N2CCOCC2)cc1` (configuration not stated), the MIC falls from over 512 µg/mL to 256 µg/mL (≈ 689 µM).

Going from `O=S(=NSC(F)(F)F)(c1ccccc1)c1ccccc1` to `O=S(=NC(F)(F)F)(c1ccccc1)c1ccccc1`, the MIC rises from 256 µg/mL (≈ 807 µM) to over 512 µg/mL.

Compound `CS(=O)(=NSC(F)(F)F)c1ccccc1` (configuration not stated) has an MIC of 128 µg/mL (≈ 501 µM).

Tested on: HepG2
Test: Cytotoxicity against human HepG2 cells assessed as cell membrane leakage by measuring LDH released incubated for 6 hrs by spectrophotometry
Format: functional
Details: HepG2, 6 h

First: CS(=N)(=O)c1ccccc1 (configuration not stated)
Second: CS(=O)(=NSC(F)(F)F)c1ccccc1 (configuration not stated)
The MCC of the first is 1000-fold higher: 100 µg/mL for the first, 0.1 µg/mL for the second.

`O=S(=NSC(F)(F)F)(c1ccccc1)N1CCCC1` (configuration not stated) and `Cc1ccc(S(=O)(=NSC(F)(F)F)N2CCCCC2)cc1` (configuration not stated) are the same in MCC: 0.1 µg/mL for the first, 0.1 µg/mL for the second.

Going from `O=S(=NSC(F)(F)F)(c1ccccc1)c1ccccc1` to `O=S(=NC(F)(F)F)(c1ccccc1)c1ccccc1`, the MCC rises from 1 µg/mL to 200 µg/mL (200-fold).

Tested on: Escherichia coli
Test: Antibacterial activity against Escherichia coli ATCC 25922 assessed as reduction in bacterial cell growth incubated for 24 hrs by two fold serial dilution
Format: functional
Details: ATCC 25922, 24 h

`CS(=N)(=O)c1ccccc1` (configuration not stated) and `CS(=O)(=NC(F)(F)F)c1ccccc1` (configuration not stated) cannot be ordered by MIC: over 512 µg/mL for the first, over 512 µg/mL for the second.

`Cc1ccc(S(=O)(=NSC(F)(F)F)N2CCCC2)cc1` (configuration not stated) and `O=[N+]([O-])c1ccc(S(=O)(=NSC(F)(F)F)N2CCCC2)cc1` (configuration not stated) cannot be ordered by MIC: over 512 µg/mL for the first, over 512 µg/mL for the second.

`O=S(=NSC(F)(F)F)(c1ccccc1)N1CCCC1` (configuration not stated) and `O=S(=NSC(F)(F)F)(c1ccccc1)N1CCOCC1` (configuration not stated) are the same in MIC: 128 µg/mL (≈ 412 µM) for the first, 128 µg/mL (≈ 392 µM) for the second.

First: O=S(=NSC(F)(F)F)(c1ccccc1)c1ccccc1
Second: O=S(=NC(F)(F)F)(c1ccccc1)c1ccccc1
The MIC of the first is lower: 256 µg/mL (≈ 807 µM) for the first, over 512 µg/mL for the second.

First: CS(=O)(=NSC(F)(F)F)c1ccccc1 (configuration not stated)
Second: O=[N+]([O-])c1ccc(S(=O)(=NSC(F)(F)F)N2CCOCC2)cc1 (configuration not stated)
The MIC of the first is lower: 16 µg/mL (≈ 62.7 µM) for the first, 128 to 256 µg/mL (≈ 345 to 689 µM) for the second.

Tested on: Bacillus subtilis
Test: Antibacterial activity against Bacillus subtilis ATCC 6051 assessed as reduction in bacterial cell growth incubated for 24 hrs by two fold serial dilution
Format: functional
Details: ATCC 6051, 24 h

`CS(=N)(=O)c1ccccc1` (configuration not stated) and `CS(=O)(=NC(F)(F)F)c1ccccc1` (configuration not stated) cannot be ordered by MIC: over 512 µg/mL for the first, over 512 µg/mL for the second.

First: Cc1ccc(S(=O)(=NSC(F)(F)F)N2CCCC2)cc1 (configuration not stated)
Second: O=[N+]([O-])c1ccc(S(=O)(=NSC(F)(F)F)N2CCCC2)cc1 (configuration not stated)
The MIC of the first is 2-fold lower: 32 µg/mL (≈ 98.6 µM) for the first, 64 µg/mL (≈ 180 µM) for the second.

First: O=S(=NSC(F)(F)F)(c1ccccc1)N1CCCC1 (configuration not stated)
Second: O=S(=NSC(F)(F)F)(c1ccccc1)N1CCOCC1 (configuration not stated)
The MIC of the first is 4-fold lower: 8 µg/mL (≈ 25.8 µM) for the first, 32 µg/mL (≈ 98 µM) for the second.

Compared with `CCN(CC)S(=O)(=NSC(F)(F)F)c1ccc([N+](=O)[O-])cc1` (configuration not stated), `O=[N+]([O-])c1ccc(S(=O)(=NSC(F)(F)F)N2CCOCC2)cc1` (configuration not stated) is higher in MIC: 16 to 32 µg/mL (≈ 44.8 to 89.5 µM) for the first, 128 to 256 µg/mL (≈ 345 to 689 µM) for the second.

First: O=S(=NSC(F)(F)F)(c1ccccc1)c1ccccc1
Second: O=S(=NC(F)(F)F)(c1ccccc1)c1ccccc1
The MIC of the first is lower: 16 µg/mL (≈ 50.4 µM) for the first, over 512 µg/mL for the second.

First: CS(=O)(=NSC(F)(F)F)c1ccccc1 (configuration not stated)
Second: O=[N+]([O-])c1ccc(S(=O)(=NSC(F)(F)F)N2CCCCC2)cc1 (configuration not stated)
The MIC of the first is 4-fold lower: 16 µg/mL (≈ 62.7 µM) for the first, 64 µg/mL (≈ 173 µM) for the second.

Tested on: Staphylococcus aureus
Test: Antibacterial activity against Staphylococcus aureus ATCC 25923 assessed as reduction in bacterial cell growth incubated for 24 hrs by two fold serial dilution
Format: functional
Details: ATCC 25923, 24 h

`CS(=N)(=O)c1ccccc1` (configuration not stated) and `CS(=O)(=NC(F)(F)F)c1ccccc1` (configuration not stated) cannot be ordered by MIC: over 512 µg/mL for the first, over 512 µg/mL for the second.

Going from `Cc1ccc(S(=O)(=NSC(F)(F)F)N2CCCC2)cc1` (configuration not stated) to `O=[N+]([O-])c1ccc(S(=O)(=NSC(F)(F)F)N2CCCC2)cc1` (configuration not stated), the MIC falls from 64 µg/mL (≈ 197 µM) to 32 µg/mL (≈ 90 µM) (2-fold).

`O=S(=NSC(F)(F)F)(c1ccccc1)N1CCCC1` (configuration not stated) and `O=S(=NSC(F)(F)F)(c1ccccc1)N1CCOCC1` (configuration not stated) are the same in MIC: 32 µg/mL (≈ 103 µM) for the first, 32 µg/mL (≈ 98 µM) for the second.

First: CCN(CC)S(=O)(=NSC(F)(F)F)c1ccc([N+](=O)[O-])cc1 (configuration not stated)
Second: O=[N+]([O-])c1ccc(S(=O)(=NSC(F)(F)F)N2CCOCC2)cc1 (configuration not stated)
The MIC of the first is lower: 32 to 64 µg/mL (≈ 89.5 to 179 µM) for the first, 128 to 256 µg/mL (≈ 345 to 689 µM) for the second.

Compared with `O=S(=NSC(F)(F)F)(c1ccccc1)c1ccccc1`, `O=S(=NC(F)(F)F)(c1ccccc1)c1ccccc1` is higher in MIC: 32 µg/mL (≈ 101 µM) for the first, over 512 µg/mL for the second.

Going from `CS(=O)(=NSC(F)(F)F)c1ccccc1` (configuration not stated) to `O=[N+]([O-])c1ccc(S(=O)(=NSC(F)(F)F)N2CCCCC2)cc1` (configuration not stated), the MIC rises from 16 µg/mL (≈ 62.7 µM) to 32 µg/mL (≈ 86.6 µM) (2-fold).

Tested on: Mycobacteroides abscessus
Test: Antimycobacterial activity against Mycobacterium abscessus ATCC 19977 assessed as reduction in bacterial cell growth incubated for 3 days by broth dilution method
Format: functional
Details: ATCC 19977, 72 h

`O=S(=NSC(F)(F)F)(c1ccccc1)N1CCCC1` (configuration not stated) and `Cc1ccc(S(=O)(=NSC(F)(F)F)N2CCCCC2)cc1` (configuration not stated) cannot be ordered by MIC: over 64 µg/mL for the first, over 64 µg/mL for the second.

`CCN(CC)S(=O)(=NSC(F)(F)F)c1ccc([N+](=O)[O-])cc1` (configuration not stated) and `O=[N+]([O-])c1ccc(S(=O)(=NSC(F)(F)F)N2CCCC2)cc1` (configuration not stated) fall in the same range of MIC: 16 to 32 µg/mL (≈ 44.8 to 89.5 µM) for the first, 16 to 32 µg/mL (≈ 45 to 90 µM) for the second.

`O=S(=NSC(F)(F)F)(c1ccccc1)c1ccccc1` and `CS(=O)(=NSC(F)(F)F)c1ccccc1` (configuration not stated) cannot be ordered by MIC: over 64 µg/mL for the first, over 64 µg/mL for the second.

First: N=S(=O)(c1ccc([N+](=O)[O-])cc1)N1CCCC1 (configuration not stated)
Second: O=[N+]([O-])c1ccc(S(=O)(=NSC(F)(F)F)N2CCCCC2)cc1 (configuration not stated)
The MIC of the first is higher: over 64 µg/mL for the first, 32 to 64 µg/mL (≈ 86.6 to 173 µM) for the second.

First: O=[N+]([O-])c1ccc(S(=O)(=NSC(F)(F)F)N2CCOCC2)cc1 (configuration not stated)
Second: Cc1ccc(S(=O)(=NSC(F)(F)F)N2CCOCC2)cc1 (configuration not stated)
The MIC of the first is higher: 32 to 64 µg/mL (≈ 86.2 to 172 µM) for the first, 16 to 32 µg/mL (≈ 47 to 94 µM) for the second.

With `N=S(=O)(c1ccccc1)N1CCOCC1` (configuration not stated) the MIC was over 64 µg/mL.

Tested on: Mycobacterium tuberculosis
Test: Antimycobacterial activity against Mycobacterium tuberculosis H37Rv assessed as reduction in bacterial cell growth incubated for 14 days by broth dilution method
Format: functional
Details: 336 h

`O=S(=NSC(F)(F)F)(c1ccccc1)N1CCCC1` (configuration not stated) and `Cc1ccc(S(=O)(=NSC(F)(F)F)N2CCCCC2)cc1` (configuration not stated) fall in the same range of MIC: 4 to 8 µg/mL (≈ 12.9 to 25.8 µM) for the first, 4 to 8 µg/mL (≈ 11.8 to 23.6 µM) for the second.

`CCN(CC)S(=O)(=NSC(F)(F)F)c1ccc([N+](=O)[O-])cc1` (configuration not stated) and `O=[N+]([O-])c1ccc(S(=O)(=NSC(F)(F)F)N2CCCC2)cc1` (configuration not stated) fall in the same range of MIC: 16 to 32 µg/mL (≈ 44.8 to 89.5 µM) for the first, 16 to 32 µg/mL (≈ 45 to 90 µM) for the second.

First: O=S(=NSC(F)(F)F)(c1ccccc1)c1ccccc1
Second: O=S(=NC(F)(F)F)(c1ccccc1)c1ccccc1
The MIC of the first is lower: 4 to 8 µg/mL (≈ 12.6 to 25.2 µM) for the first, over 64 µg/mL for the second.

Compared with `CS(=O)(=NSC(F)(F)F)c1ccccc1` (configuration not stated), `CS(=O)(=NC(F)(F)F)c1ccccc1` (configuration not stated) is higher in MIC: 4 to 8 µg/mL (≈ 15.7 to 31.3 µM) for the first, over 64 µg/mL for the second.

`N=S(=O)(c1ccc([N+](=O)[O-])cc1)N1CCCC1` (configuration not stated) and `O=[N+]([O-])c1ccc(S(=O)(=NSC(F)(F)F)N2CCCCC2)cc1` (configuration not stated) cannot be ordered by MIC: over 64 µg/mL for the first, over 64 µg/mL for the second.

First: O=[N+]([O-])c1ccc(S(=O)(=NSC(F)(F)F)N2CCOCC2)cc1 (configuration not stated)
Second: Cc1ccc(S(=O)(=NSC(F)(F)F)N2CCOCC2)cc1 (configuration not stated)
The MIC of the first is higher: 16 to 32 µg/mL (≈ 43.1 to 86.2 µM) for the first, 8 to 16 µg/mL (≈ 23.5 to 47 µM) for the second.

Work on `N=S(=O)(c1ccccc1)N1CCOCC1` (configuration not stated) yielded an MIC of over 64 µg/mL.

Tested on: HepG2
Test: Cytotoxicity against human HepG2 cells incubated for 6 hrs by MTT assay
Format: functional, cell-based
Details: HepG2, 6 h

`CS(=N)(=O)c1ccccc1` (configuration not stated) and `CS(=O)(=NC(F)(F)F)c1ccccc1` (configuration not stated) cannot be ordered by IC50: over 100 µg/mL for the first, over 200 µg/mL for the second.

First: O=S(=NSC(F)(F)F)(c1ccccc1)N1CCCC1 (configuration not stated)
Second: Cc1ccc(S(=O)(=NSC(F)(F)F)N2CCCCC2)cc1 (configuration not stated)
The IC50 of the first is 4.3-fold lower: 15 µg/mL (≈ 48.3 µM) for the first, 65 µg/mL (≈ 192 µM) for the second.

First: O=S(=NSC(F)(F)F)(c1ccccc1)c1ccccc1
Second: O=S(=NC(F)(F)F)(c1ccccc1)c1ccccc1
The IC50 of the first is 2.2-fold lower: 90 µg/mL (≈ 284 µM) for the first, 200 µg/mL (≈ 701 µM) for the second.

In the case of `CS(=O)(=NSC(F)(F)F)c1ccccc1` (configuration not stated), the IC50 is reported as 15 µg/mL (≈ 58.8 µM).
